Reference: the NIST ThermoML archive (doi:10.1016/j.fluid.2010.10.022)
Numbers after ± are expanded uncertainties.

Test: excess molar enthalpy (molar enthalpy of mixing); xn = mol fraction of the nth substance listed
Conditions: 298.15 K, 101 kPa, Liquid, Flow calorimetry

C#CCCCC [1-hexyne] + CCCOC(C)=O
excess molar enthalpy (x2 = 0.1079): -0.0304 ± 0.00239 kcal/mol
excess molar enthalpy (x2 = 0.1967): -0.0477 ± 0.00239 kcal/mol
excess molar enthalpy (x2 = 0.3032): -0.0608 ± 0.00239 kcal/mol
excess molar enthalpy (x2 = 0.395): -0.066 ± 0.00239 kcal/mol
excess molar enthalpy (x2 = 0.4373): -0.0664 ± 0.00239 kcal/mol
excess molar enthalpy (x2 = 0.5003): -0.0654 ± 0.00239 kcal/mol
excess molar enthalpy (x2 = 0.595): -0.0605 ± 0.00239 kcal/mol
excess molar enthalpy (x2 = 0.6575): -0.0553 ± 0.00239 kcal/mol
excess molar enthalpy (x2 = 0.6989): -0.0511 ± 0.00239 kcal/mol
excess molar enthalpy (x2 = 0.7967): -0.038 ± 0.00239 kcal/mol
excess molar enthalpy (x2 = 0.8992): -0.0205 ± 0.00239 kcal/mol

CC#CCCC [2-hexyne] + CCCOC(C)=O
excess molar enthalpy (x2 = 0.1094): 0.0106 ± 0.00239 kcal/mol
excess molar enthalpy (x2 = 0.204): 0.0174 ± 0.00239 kcal/mol
excess molar enthalpy (x2 = 0.3153): 0.022 ± 0.00239 kcal/mol
excess molar enthalpy (x2 = 0.4179): 0.0249 ± 0.00239 kcal/mol
excess molar enthalpy (x2 = 0.5044): 0.0245 ± 0.00239 kcal/mol
excess molar enthalpy (x2 = 0.5938): 0.0215 ± 0.00239 kcal/mol
excess molar enthalpy (x2 = 0.7075): 0.0157 ± 0.00239 kcal/mol
excess molar enthalpy (x2 = 0.7983): 0.0108 ± 0.00239 kcal/mol
excess molar enthalpy (x2 = 0.8927): 0.00645 ± 0.00239 kcal/mol

CCC#CCC [3-hexyne] + CCCOC(C)=O
excess molar enthalpy (x2 = 0.0968): 0.0105 ± 0.00239 kcal/mol
excess molar enthalpy (x2 = 0.202): 0.0186 ± 0.00239 kcal/mol
excess molar enthalpy (x2 = 0.3025): 0.0269 ± 0.00239 kcal/mol
excess molar enthalpy (x2 = 0.4063): 0.0341 ± 0.00239 kcal/mol
excess molar enthalpy (x2 = 0.4979): 0.0377 ± 0.00239 kcal/mol
excess molar enthalpy (x2 = 0.5956): 0.0353 ± 0.00239 kcal/mol
excess molar enthalpy (x2 = 0.7045): 0.0267 ± 0.00239 kcal/mol
excess molar enthalpy (x2 = 0.7995): 0.0182 ± 0.00239 kcal/mol
excess molar enthalpy (x2 = 0.8928): 0.0101 ± 0.00239 kcal/mol
